Measured values taken from publication PMC10709327, “A class of secreted mammalian peptides with potential to expand cell-cell communication” (Nature Communications, 2023).
Values belong to the compound of their own block, whether it stands above or below them. Where a SMILES comes first, the peptide text is derived from it. Where no end group is shown, it is not given here. [ ]: non-standard residue; d: D form. pGlu = O=C1CC[C@@H](C(=O)O)N1

Assays:
human TACR3 = target: T1, human TACR3 (Homo sapiens, UniProt P29371); assay: TACR agonist assay, PathHunter beta-arrestin recruitment (TACR3); type: cell-based; settings: read-out: maximal activation at TACR3, higher compared to Substance P(6-11)
T1 construct: host or cells: PathHunter beta-arrestin CHO-K1 cells
T1 sequence (P29371 1-465): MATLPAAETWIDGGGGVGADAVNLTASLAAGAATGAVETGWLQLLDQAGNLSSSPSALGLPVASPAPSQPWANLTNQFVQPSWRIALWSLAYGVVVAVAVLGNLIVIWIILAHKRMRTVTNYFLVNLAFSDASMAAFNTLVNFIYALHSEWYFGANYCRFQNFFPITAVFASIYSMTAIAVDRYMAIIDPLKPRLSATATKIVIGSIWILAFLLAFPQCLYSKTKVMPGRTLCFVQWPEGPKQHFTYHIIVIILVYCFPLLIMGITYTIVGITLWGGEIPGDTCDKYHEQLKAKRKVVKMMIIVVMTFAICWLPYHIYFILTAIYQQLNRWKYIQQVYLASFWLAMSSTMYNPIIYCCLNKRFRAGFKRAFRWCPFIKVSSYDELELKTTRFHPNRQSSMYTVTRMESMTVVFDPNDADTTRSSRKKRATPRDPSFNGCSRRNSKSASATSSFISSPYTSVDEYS

in vitro = assay: in vitro
Description: P value were calculated with two-way ANOVA. Source data are provided as a Source Data file.
At indicated time point, 1 µl of HALT protease inhibitor was immediately added, and plasma was boiled and prepared using the peptidomics workflow described above. […] Half-lives were calculated using an exponential decay fit.

[1] = tested on: diet-induced obese male mice; assay: 3-day food intake and body weight under daily dosing; type: in vivo, mouse; settings: for Food Intake: 50 mg/kg
Description: (§1) Fig. 5 Functional studies of […] in feeding and energy balance in mice. a Schematic of the primary amino acid sequence for full-length mouse GDF15 preproprotein and annotation of CAP-GDF15 sequence as well as the canonical GDF15 hormone sequence. b–d Food intake (b), respiratory exchange ratio (RER, c), and ambulatory activity (d) of 12–16-week diet-induced obese male mice following a single treatment of CAP-GDF15 (50 mg/kg, intraperitoneal) or vehicle control. e–g Food intake (e), RER (f), and ambulatory activity (g) of 12–16-week diet-induced obese male mice following a single treatment of scrambled CAP-GDF15 (50 mg/kg, intraperitoneal, scrambled sequence: pGlu-[…]-NH2) or vehicle control. h, i 3-day food intake (h) and body weight (i) of 12–16-week diet-induced obese male mice following treatment with CAP-GDF15 or scrambled CAP-GDF15 (50 mg/kg/day, IP), or vehicle control. Data are shown as means ± SEM. b–d, N = 12 mice/group; for e, f N = 8 mice/group; for h N = 7 food cages for vehicle and CAP-GDF15 groups and N = 5 for the scrambled peptide group; for i N = 14 mice for the vehicle group, N = 13 for the CAP-GDF15 group, and N = 5 for the scrambled peptide group. b–i injection occurred at time T = 0 (5:00 pm) and data were collected for the following 16 hrs. For (b-i), p values were calculated by two-way ANOVA. Source data are provided as a Source Data file.
Lastly, to determine whether the acute food intake suppressive effects of CAP-GDF15 would lead to long-term suppression of feeding and obesity, we administered CAP-GDF15 or scrambled CAP-GDF15 (50 mg/kg/day, IP), or vehicle control to diet-induced obese mice. Food intake and body weight were monitored over a three-day period. A durable suppression of food intake in CAP-GDF15-treated mice was over the three-day experiment (Vehicle, 7.3 ± 0.5 g/mouse; […], 4.1 ± 0.9 g/mouse/day, P < 0.05, Fig. 5h). Consequently, and as expected, an increasing reduction in body weight was also detected (Vehicle, +0.1 ± 0.3 g/mouse; CAP-GDF15, −1.9 ± 0.3 g/mouse, P < 0.001, Fig. 5i). Importantly, mice treated with the scrambled CAP-GDF15 peptide were indistinguishable in body weight or food intake from control mice (P > 0.05 versus vehicle-treated mice, Fig. 5h, i).
(§2) Animal experiments were performed according to a procedure approved by the Stanford University Administrative Panel on Laboratory Animal Care. Mice were maintained in 12-h light-dark cycles at 22 °C and about 50% relative humidity and fed a standard irradiated rodent diet. Where indicated, a high-fat diet (D12492, Research Diets 60% kcal from fat) was used. Male C57BL/6 J (stock number 000664) and male C57BL/6 J DIO mice were purchased from the Jackson Laboratory (stock number 380050). For studies in high-fat diet-fed mice, peptides were dissolved in 18:1:1 (by volume) of saline:Kolliphor EL (Sigma Aldrich):DMSO and administered to mice by intraperitoneal injections at a volume of 10 µl/g at the indicated doses for the indicated times. For lipopolysacchardide injection, LPS (Sigma, #L2880-10MG) was dissolved in saline and administered to mice at a volume of 5 µl/g at indicated dose. For fasting, food was removed from mice for 16 h. For running, a six-lane Columbus Instruments animal treadmill (product 1055-SRM-D65) was used with following 1 h protocol: 10 min at 6 m/min, 50 min at 18 m/min, and increase every 2 min by 2 m/min for the last 10 minutes, all at 12° incline. For all treatment experiments, mice were mock injected with the vehicle for 3–5 days until body weights were stabilized. Heparin plasma was harvested by submandibular bleed. For all experiments, mice were randomly assigned to treatment groups. Experimenters were not blinded to groups.

[2] = tested on: diet-induced obese male mice; assay: Metabolic chamber studies after a single dose (food intake, RER, movement, VO2, VCO2); type: in vivo, mouse; settings: single dose 50 mg/kg intraperitoneal, diet-induced obese male mice, metabolic chambers
Description: as §1, with “Data are shown as means ± SEM. b–d, N = 12 mice/group; for e, f N = 8 mice/group; for h N = 7 food cages for vehicle and CAP-GDF15 groups and N = 5 for the scrambled peptide group; for i N = 14 mice for the vehicle group, N = 13 for the CAP-GDF15 group, and N = 5 for the scrambled peptide group. b–i injection occurred at time T = 0 (5:00 pm) and data were collected for the following 16 hrs.” left out
as §2
For acute energy expenditure studies, food intake, RER, movement, VO2, and VCO2 were collected with CLAMS Oxymax Metabolic Cages. Mice were placed in individual metabolic cages for 24 hours prior to experiment. Mice were injected with either vehicle, 50 mg/kg CAP-GDF15, 50 mg/kg uncapped CAP-GDF15, or 50 mg/kg scrambled CAP-GDF15 at 5 pm at T = 0. […] All experiments were done with 3–5 month old DIO mice (Jackson, stock 380050), fed high-fat diet ad libitum.
Supplementary Figure 5. Additional measurements from metabolic chambers of mice treated with CAP-GDF15. a CAP-GDF15 plasma concentration after administration of CAP-GDF15 (50 mg/kg, intraperitoneal) or vehicle control. b-c VO2 (b) and VCO2 (c) of 12-16-week diet-induced obese male mice following a single treatment of CAP-GDF15 (50 mg/kg, intraperitoneal) or vehicle control. d-e VO2 (d) and VCO2 (e) of 12-16-week diet-induced obese male mice following a single treatment of scrambled CAP-GDF15 (50 mg/kg, intraperitoneal, scrambled sequence: p[…]-NH2) or vehicle control. f Acute food intake of 12-16-week diet-induced obese male mice following a single treatment of CAP-GDF15 (50 mg/kg, intraperitoneal), uncapped CAP-GDF15 (50 mg/kg, intraperitoneal), or vehicle control. For (a), N=3/group; (b-c), N=12/group; for (d-e), N=8/group; for (f), N=5/group.
For (a-f), injection occurred at time T=0 (5:00pm). Data are shown as means ± SEM. For (b-i), p values were calculated by two-way ANOVA. Source data are provided as a Source Data

[3] = human, in vivo; cited from earlier work
[4] = 50 mg/kg/day IP, diet-induced obese mice, N = 5, P > 0.05 versus vehicle

Emax (human TACR3): ~20%
half-life at 10 µM (in vitro; mouse, plasma): 17.1 min
plasma stability t1/2, earlier manuscript version quoted in the rebuttal (in vitro; mouse, plasma): 14.4 min
Compound: CSCC[C@H](NC(=O)[C@H](CC(C)C)NC(=O)CNC(=O)[C@H](Cc1ccccc1)NC(=O)[C@H](Cc1ccccc1)NC(=O)[C@@H]1CCC(=O)N1)C(N)=O [CAP-TAC1] ([pGlu]FFGLM-NH2)

Compound: CC(C)C[C@H](NC(=O)CNC(=O)[C@@H]1CCC(=O)N1)C(=O)N[C@@H](CCC(=O)O)C(=O)N[C@@H](C)C(=O)N[C@@H](CC(C)C)C(=O)N[C@@H](CCCNC(=N)N)C(=O)N[C@@H](C)C(=O)N[C@@H](CCCNC(=N)N)C(=O)N[C@@H](CC(C)C)C(=O)N[C@@H](CCCNC(=N)N)C(=O)N[C@H](C(N)=O)C(C)C [Scrambled Peptide] ([pGlu]GLEALRARLRV-NH2)
Food Intake ([1]; 24 h, individual animal 1): 2.8 g
Food Intake ([1]; 24 h, individual animal 2): 2.6 g
Food Intake ([1]; 24 h, individual animal 3): 3.6 g
Food Intake ([1]; 24 h, individual animal 4): 3.6 g
Food Intake ([1]; 24 h, individual animal 5): 2.3 g
Food Intake ([1]; 48 h, individual animal 1): 6.2 g
Food Intake ([1]; 48 h, individual animal 2): 4.9 g
Food Intake ([1]; 48 h, individual animal 3): 7.3 g
Food Intake ([1]; 48 h, individual animal 4): 7.3 g
Food Intake ([1]; 48 h, individual animal 5): 4.2 g
Food Intake ([1]; 72 h, individual animal 1): 9.2 g
Food Intake ([1]; 72 h, individual animal 2): 7.4 g
Food Intake ([1]; 72 h, individual animal 3): 10.7 g
Food Intake ([1]; 72 h, individual animal 4): 10.9 g
Food Intake ([1]; 72 h, individual animal 5): 6.9 g

plasma stability t1/2 (in vitro): 8.5 min
half-life at 10 µM (in vitro; mouse, plasma): 4.5 min
Compound: CSCC[C@H](NC(=O)[C@H](CC(C)C)NC(=O)CNC(=O)[C@H](Cc1ccccc1)NC(=O)[C@H](Cc1ccccc1)NC(=O)[C@H](CCC(N)=O)NC(=O)[C@H](CCC(N)=O)NC(=O)[C@@H]1CCCN1C(=O)[C@H](CCCCN)NC(=O)[C@@H]1CCCN1C(=O)[C@@H](N)CCCN=C(N)N)C(N)=O [Substance P]

Compound: CC(C)C[C@H](NC(=O)CNC(=O)[C@@H]1CCC(=O)N1)C(=O)N[C@@H](CCC(=O)O)C(=O)N[C@@H](C)C(=O)N[C@@H](CC(C)C)C(=O)N[C@@H](CCCNC(=N)N)C(=O)N[C@@H](C)C(=O)N[C@@H](CCCNC(=N)N)C(=O)N[C@@H](CC(C)C)C(=O)N[C@@H](CCCNC(=N)N)C(=O)N[C@H](C(N)=O)C(C)C [scrambled CAP-GDF15] ([pGlu]GLEALRARLRV-NH2)
3-day body weight compared with control mice, in words [1, 4]: indistinguishable
3-day food intake compared with control mice, in words [1, 4]: indistinguishable
effect on acute food intake, in words [2]: completely ineffective
effect on respiratory exchange ratio (RER) [2]: completely ineffective

half-life at 10 µM (in vitro; mouse, plasma): 8.5 min
Compound: QFFGLM-NH2 [Substance P (6-11)]

Compound: QLELRLRVAAGR [uncapped CAP-GDF15]
effect on acute food intake, in words [2]: significantly less efficacious

Compound: liraglutide
bioavailability [3]: 55%
